What was measured:
[1] = system: MV-4-11 (human, Acute Myeloid Leukemia cell line) cells; assay: Cell growth inhibition assay, GI50 of MV-4-11; type: cell-based; conditions: Homo sapiens, MV4-11, 72 h, MV-4-11 cells
How it was run: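 GI50 derived from 490 nm absorbance using CellTiter 96 Aqueous One reagent, with compound-free medium providing the background. Human AML MV-4-11 cells, seeded at 5×10^4 per well in IMDM/10% FBS, incubated 72 h at 37 °C with duplicate serial dilutions of test compound.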

[2] = target: cDNA-expressed human hepatic CYP3A4 (Homo sapiens (Human), UniProt P08684); assay: Measurement of CYP (IC50 of P450 CYP3A4), BFC substrate; type: in vitro ADME; conditions: 20 minutes
How it was run: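 cDNA-expressed human CYP3A4 supersomes in 0.1M potassium phosphate pH 7.4 with 8.3 mM MgCl2, 1.67 mM EDTA and 0.25 mM NADPH; compounds in acetonitrile (<1% final). Reaction started with 30 µM BFC, 20 min at 37. 7-Hydroxy-4-trifluoromethyl-coumarin read by fluorescence (ex 409/em 530 nm).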

cDNA-expressed human hepatic CYP3A4, sequence (P08684 whole entry): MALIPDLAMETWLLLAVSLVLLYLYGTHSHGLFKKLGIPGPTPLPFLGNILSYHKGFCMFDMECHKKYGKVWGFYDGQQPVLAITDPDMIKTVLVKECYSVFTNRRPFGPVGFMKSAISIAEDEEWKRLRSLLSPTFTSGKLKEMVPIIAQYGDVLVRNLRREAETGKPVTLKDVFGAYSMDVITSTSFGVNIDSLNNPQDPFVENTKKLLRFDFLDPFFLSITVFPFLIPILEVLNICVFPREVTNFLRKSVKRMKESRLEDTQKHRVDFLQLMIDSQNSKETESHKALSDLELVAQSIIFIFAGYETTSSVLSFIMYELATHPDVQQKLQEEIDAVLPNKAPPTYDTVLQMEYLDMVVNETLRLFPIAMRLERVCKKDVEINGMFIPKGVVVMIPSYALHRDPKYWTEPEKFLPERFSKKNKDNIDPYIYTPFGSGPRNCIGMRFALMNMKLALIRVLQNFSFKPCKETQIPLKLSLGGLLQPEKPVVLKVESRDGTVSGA

Molecule C=CCN1CC(=O)N2[C@@H](Cc3ccc(O)cc3)C(=O)N(Cc3cccc4c(C(=O)N5CCN6CCN(C(=O)OC(C)(C)C)CC6C5)cn(C)c34)C[C@@H]2N1C(=O)NCc1ccccc1 (some centres unmarked) [Compound E-47] has a GI50 [1] of 13.5 nM and an IC50 [2] of 2200 nM.
Work on C=CCN1CC(=O)N2[C@@H](Cc3ccc(O)cc3)C(=O)N(Cc3cccc4c(C(=O)N5CCC(OC)CC5)cn(C)c34)C[C@@H]2N1C(=O)NCc1ccccc1 [Compound E-52] yielded a GI50 [1] of 9.2 nM and an IC50 [2] of 3300 nM.
Work on C=CCN1CC(=O)N2[C@@H](Cc3ccc(O)cc3)C(=O)N(Cc3cccc4c(C(=O)N5CCC(C(=O)OCC)CC5)cn(C)c34)C[C@@H]2N1C(=O)NCc1ccccc1 [Compound E-53] yielded a GI50 [1] of 1.9 nM and an IC50 [2] of 3860 nM.
For C=CCN1CC(=O)N2[C@@H](Cc3ccc(O)cc3)C(=O)N(Cc3cccc4c(C(=O)N5CCC(N6CCOCC6)CC5)cn(C)c34)C[C@@H]2N1C(=O)NCc1ccccc1 [Compound E-65], the GI50 [1] was 13 nM and the IC50 [2] was 2110 nM.
C=CCN1CC(=O)N2[C@@H](Cc3ccc(O)cc3)C(=O)N(Cc3cccc4c(C(=O)N5CC(N6CCC(OC)CC6)C5)cn(C)c34)C[C@@H]2N1C(=O)NCc1ccccc1 [Compound E-73] showed a GI50 [1] of 19.3 nM and an IC50 [2] of 11800 nM.
C=CCN1CC(=O)N2[C@@H](Cc3ccc(O)cc3)C(=O)N(Cc3cccc4c(C(=O)N(C)CCO)cn(C)c34)C[C@@H]2N1C(=O)NCc1ccccc1 [Compound F-3] gave a GI50 [1] of 7.6 nM and an IC50 [2] of 2510 nM.
C=CCN1CC(=O)N2[C@@H](Cc3ccc(O)cc3)C(=O)N(Cc3cccc4c(C(=O)N(C)CCCO)cn(C)c34)C[C@@H]2N1C(=O)NCc1ccccc1 [Compound F-5] was tested, and the GI50 [1] was 16 nM and the IC50 [2] was 3680 nM.
Work on C=CCN1CC(=O)N2[C@@H](Cc3ccc(O)cc3)C(=O)N(Cc3cccc4c(C(=O)NCCCOC)cn(C)c34)C[C@@H]2N1C(=O)NCc1ccccc1 [Compound F-6] yielded a GI50 [1] of 11.9 nM and an IC50 [2] of 3840 nM.
C=CCN1CC(=O)N2[C@@H](Cc3ccc(O)cc3)C(=O)N(Cc3cccc4c(C(=O)N(C)CC5(CO)CC5)cn(C)c34)C[C@@H]2N1C(=O)NCc1ccccc1 [Compound F-9] showed a GI50 [1] of 15.4 nM and an IC50 [2] of 2530 nM.
In the case of C=CCN1CC(=O)N2[C@@H](Cc3ccc(O)cc3)C(=O)N(Cc3cccc4c(C(=O)NCCCCOC)cn(C)c34)C[C@@H]2N1C(=O)NCc1ccccc1 [Compound F-10], the GI50 [1] is reported as 15.1 nM and the IC50 [2] is reported as 2010 nM.
In the case of C=CCN1CC(=O)N2[C@@H](Cc3ccc(O)cc3)C(=O)N(Cc3cccc4c(C(=O)N(C)CCN5CCOCC5)cn(C)c34)C[C@@H]2N1C(=O)NCc1ccccc1 [Compound F-26], the GI50 [1] is reported as 19.8 nM and the IC50 [2] is reported as 2860 nM.
C=CCN1CC(=O)N2[C@@H](Cc3ccc(O)cc3)C(=O)N(Cc3cccc4c(C(=O)NCc5ccc(N(C)C)nc5)cn(C)c34)C[C@@H]2N1C(=O)NCc1ccccc1 [Compound F-47] was tested, and the GI50 [1] was 6.9 nM and the IC50 [2] was 2050 nM.
In the case of C=CCN1CC(=O)N2[C@@H](Cc3ccc(O)cc3)C(=O)N(Cc3cccc4c(C(=O)NCc5ccnc(N(C)C)c5)cn(C)c34)C[C@@H]2N1C(=O)NCc1ccccc1 [Compound F-48], the GI50 [1] is reported as 10.7 nM and the IC50 [2] is reported as 2180 nM.
In the case of C=CCN1CC(=O)N2[C@@H](Cc3ccc(O)cc3)C(=O)N(Cc3cccc4c(C(=O)NC5CCN(C(=O)OC(C)(C)C)CC5)cn(C)c34)C[C@@H]2N1C(=O)NCc1ccccc1 [Compound F-61], the GI50 [1] is reported as 1.6 nM and the IC50 [2] is reported as 5650 nM.
In the case of C=CCN1CC(=O)N2[C@@H](Cc3ccc(O)cc3)C(=O)N(Cc3cccc4c(C(=O)NC5CCN(C(=O)c6ccc(N(C)C)cc6)CC5)cn(C)c34)C[C@@H]2N1C(=O)NCc1ccccc1 [Compound F-66], the GI50 [1] is reported as 17.5 nM and the IC50 [2] is reported as 6150 nM.
Molecule C=CCN1CC(=O)N2[C@@H](Cc3ccc(O)cc3)C(=O)N(Cc3cccc4c(C(=O)NC5CCN(C(=O)c6ccc(N7CCN(C)CC7)cc6)CC5)cn(C)c34)C[C@@H]2N1C(=O)NCc1ccccc1 [Compound F-67] has a GI50 [1] of 2.5 nM and an IC50 [2] of 9650 nM.
C=CCN1CC(=O)N2[C@@H](Cc3ccc(O)cc3)C(=O)N(Cc3cccc4c(C(=O)Nc5ccc(OC)cc5)cn(C)c34)C[C@@H]2N1C(=O)NCc1ccccc1 [Compound G-3] showed a GI50 [1] of 5.7 nM and an IC50 [2] of 2610 nM.
With C=CCN1CC(=O)N2C(CN(Cc3cccc4c(C(=O)Nc5ccc(OC)nc5)cn(C)c34)C(=O)[C@@H]2Cc2ccc(O)cc2)N1C(=O)NCc1ccccc1 (some centres unmarked) [Compound G-5] the GI50 [1] was 8.8 nM and the IC50 [2] was 2160 nM.
For C=CCN1CC(=O)N2[C@@H](Cc3ccc(O)cc3)C(=O)N(Cc3cccc4c(C(=O)Nc5ccc(OC(C)(C)C)cc5)cn(C)c34)C[C@@H]2N1C(=O)NCc1ccccc1 [Compound G-6], the GI50 [1] was 14 nM and the IC50 [2] was 19100 nM.
C=CCN1CC(=O)N2C(CN(Cc3cccc4c(C(=O)Nc5ccc(CCO)cc5)cn(C)c34)C(=O)[C@@H]2Cc2ccc(O)cc2)N1C(=O)NCc1ccccc1 (some centres unmarked) [Compound G-10] was tested, and the GI50 [1] was 1.7 nM and the IC50 [2] was 7400 nM.
Work on C=CCN1CC(=O)N2[C@@H](Cc3ccc(O)cc3)C(=O)N(Cc3cccc4c(C(=O)Nc5ccc(OCCOC)nc5)cn(C)c34)C[C@@H]2N1C(=O)NCc1ccccc1 [Compound G-11] yielded a GI50 [1] of 1.8 nM and an IC50 [2] of 7620 nM.
C=CCN1CC(=O)N2[C@@H](Cc3ccc(O)cc3)C(=O)N(Cc3cccc4c(C(=O)Nc5ccc(OCCN(C)C)nc5)cn(C)c34)C[C@@H]2N1C(=O)NCc1ccccc1 [Compound G-12] gave a GI50 [1] of 9.9 nM and an IC50 [2] of 10100 nM.
With C=CCN1CC(=O)N2[C@@H](Cc3ccc(O)cc3)C(=O)N(Cc3cccc4c(C(=O)Nc5ccc(OCCCN(C)C)nc5)cn(C)c34)C[C@@H]2N1C(=O)NCc1ccccc1 [Compound G-13] the GI50 [1] was 9 nM and the IC50 [2] was 13000 nM.
For C=CCN1CC(=O)N2[C@@H](Cc3ccc(O)cc3)C(=O)N(Cc3cccc4c(C(=O)Nc5ccc(N(C)C)nc5)cn(C)c34)C[C@@H]2N1C(=O)NCc1ccccc1 [Compound G-15], the GI50 [1] was 1.2 nM and the IC50 [2] was 6750 nM.
C=CCN1CC(=O)N2[C@@H](Cc3ccc(O)cc3)C(=O)N(Cc3cccc4c(C(=O)Nc5ccc(N(C)CCO)nc5)cn(C)c34)C[C@@H]2N1C(=O)NCc1ccccc1 [Compound G-18] gave a GI50 [1] of 1.5 nM and an IC50 [2] of 3450 nM.
C=CCN1CC(=O)N2C(Cc3ccc(O)cc3)C(=O)N(Cc3cccc4c(C(=O)Nc5ccc(NCC(C)(C)C)nc5)cn(C)c34)CC2N1C(=O)NCc1ccccc1 (centres unmarked) [Compound G-22] gave a GI50 [1] of 1.4 nM and an IC50 [2] of 2380 nM.
C=CCN1CC(=O)N2[C@@H](Cc3ccc(O)cc3)C(=O)N(Cc3cccc4c(C(=O)Nc5ccc(NCCN(C)C)nc5)cn(C)c34)C[C@@H]2N1C(=O)NCc1ccccc1 [Compound G-23] showed a GI50 [1] of 1.3 nM and an IC50 [2] of 6750 nM.
Molecule C=CCN1CC(=O)N2C(Cc3ccc(O)cc3)C(=O)N(Cc3cccc4c(C(=O)Nc5ccc(NCCN6CCCCC6)nc5)cn(C)c34)CC2N1C(=O)NCc1ccccc1 (centres unmarked) [Compound G-27] has a GI50 [1] of 2 nM and an IC50 [2] of 2530 nM.
With C=CCN1CC(=O)N2C(Cc3ccc(O)cc3)C(=O)N(Cc3cccc4c(C(=O)Nc5ccc(NCCN6CCOCC6)nc5)cn(C)c34)CC2N1C(=O)NCc1ccccc1 (centres unmarked) [Compound G-28] the GI50 [1] was 5.6 nM and the IC50 [2] was 2320 nM.
Work on C=CCN1CC(=O)N2[C@@H](Cc3ccc(O)cc3)C(=O)N(Cc3cccc4c(C(=O)Nc5ccc(OCCCN6CCCCC6)nc5)cn(C)c34)C[C@@H]2N1C(=O)NCc1ccccc1 [Compound G-31] yielded a GI50 [1] of 2.7 nM and an IC50 [2] of 7670 nM.
With C=CCN1CC(=O)N2C(Cc3ccc(O)cc3)C(=O)N(Cc3cccc4c(C(=O)Nc5ccc(NCCCN6CCCC6)nc5)cn(C)c34)CC2N1C(=O)NCc1ccccc1 (centres unmarked) [Compound G-32] the GI50 [1] was 11.9 nM and the IC50 [2] was 2570 nM.

— US8940739B2, “Compound of a reverse-turn mimetic and a production method and use therefor” (JW Pharmaceutical Corporation, priority 2010, dated 2015)
